Results: patent US9751874B2, “Hydroxy containing FXR (NR1H4) modulating compounds” (Gilead Sciences, Inc., priority 2014, dated 2017)

How the values were obtained:
[1] = target: T1, human FXR alpha ligand binding domain (Homo sapiens, UniProt Q96RI1); test: FRET activity assay (ligand mediated cofactor peptide interaction, LANCE); assay type: biochemical; conditions: GST-FXR-LBD / biotinylated SRC-1 peptide (676-700), read-out: F EC50
T1 construct: made in house; host or cells: E. coli BL21(DE3), vector pDEST15
T1 sequence (Q96RI1 187-472 isoform Q96RI1-2): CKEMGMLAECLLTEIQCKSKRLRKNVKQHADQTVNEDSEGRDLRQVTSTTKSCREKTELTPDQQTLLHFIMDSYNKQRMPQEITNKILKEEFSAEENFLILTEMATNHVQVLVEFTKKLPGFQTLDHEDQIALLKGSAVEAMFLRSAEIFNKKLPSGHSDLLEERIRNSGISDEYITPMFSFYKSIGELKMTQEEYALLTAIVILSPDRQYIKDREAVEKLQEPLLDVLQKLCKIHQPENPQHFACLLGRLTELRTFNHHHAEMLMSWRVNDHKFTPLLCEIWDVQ
Method: Determination of a ligand mediated cofactor peptide interaction to quantify ligand binding to the nuclear receptor FXR was performed as follows: Preparation of human FXR alpha ligand binding domain: The human FXRalpha LBD was expressed in E. coli strain BL21(DE3) as an N-terminally GST tagged fusion protein. The DNA encoding the FXR ligand binding domain was cloned into vector pDEST15 (Invitrogen). Expression was under control of an IPTG inducible T7 promoter. The amino acid boundaries of the ligand binding domain were amino acids 187-472 of Database entry NM_005123 (RefSeq). Expression and purification of the FXR-LBD: An overnight preculture of a transformed E. coli strain was diluted 1:20 in LB-Ampicillin medium and grown at 30° C. to an optical density of OD600=0.4-0.6. Gene expression was then induced by addition of 0.5 mM IPTG. Cells were incubated an additional 6 h at 30° C., 180 rpm. Cells were collected by centrifugation (7000×g, 7 min, rt). Per liter of original cell culture, cells were resuspended in 10 mL lysis buffer (50 mM Glucose, 50 mM Tris pH 7.9, 1 mM EDTA and 4 mg/mL lysozyme) and left on ice for 30 min. Cells were then subjected to sonication and cell debris removed via centrifugation (22000×g, 30 min, 4° C.). Per 10 mL of supernatant 0.5 mL prewashed Glutathione 4B sepharose slurry (Qiagen) was added and the suspension kept slowly rotating for 1 h at 4° C. Glutathione 4B sepharose beads were pelleted by centrifugation (2000×g, 15 sec, 4° C.) and washed twice in wash buffer (25 mM Tris, 50 mM KCl, 4 mM MgCl2 and 1M NaCl). The pellet was resuspended in 3 mL elution buffer per liter of original culture (elution buffer: 20 mM Tris, 60 mM KCl, 5 mM MgCl2 and 80 mM glutathione added immediately prior to use as powder). The suspension was left rotating for 15 min at 4° C., the beads pelleted and eluted again with half the volume of elution buffer than the first time. The eluates were pooled and dialysed overnight in 20 mM Hepes buffer (pH 7.5) containing 60 mM KCl, 5 mM MgCl2 as well as 1 mM dithiothreitol and 10% (v/v) glycerol. The protein was analysed by SDS-Page.
The method measures the ability of putative ligands to modulate the interaction between the purified bacterial expressed FXR ligand binding domain (LBD) and a synthetic biotinylated peptide based on residues 676-700 of SRC-1 (LCD2, 676-700). The sequence of the peptide used was B—[…]—COOH where the N-terminus was biotinylated (B). The ligand binding domain (LBD) of FXR was expressed as fusion protein with GST in BL-21 cells using the vector pDEST15. Cells were lysed by sonication, and the fusion proteins purified over glutathione sepharose (Pharmacia) according to the manufacturers instructions. For screening of compounds for their influence on the FXR-peptide interaction, the Perkin Elmer LANCE technology was applied. This method relies on the binding dependent energy transfer from a donor to an acceptor fluorophor attached to the binding partner of interest. For ease of handling and reduction of background from compound fluorescence LANCE technology makes use of generic fluorophore labels and time resolved detection Assays were done in a final volume of 25 μL in a 384 well plate, in a Tris-based buffer (20 mM Tris-HCl pH 7.5; 60 mM KCl, 5 mM MgCl2; 35 ng/μL BSA), containing 20-60 ng/well recombinantly expressed FXR-LBD fused to GST, 200-600 nM N-terminally biotinylated peptide, representing SRC1 aminoacids 676-700, 200 ng/well Streptavidin-xIAPC conjugate (Prozyme) and 6-10 ng/well Eu W1024-antiGST (Perkin Elmer). DMSO content of the samples was kept at 1%. After generation of the assay mix and diluting the potentially FXR modulating ligands, the assay was equilibrated for 1 h in the dark at rt in FIA-plates black 384 well (Greiner). The LANCE signal was detected by a Perkin Elmer VICTOR2VTM Multilabel Counter. The results were visualized by plotting the ratio between the emitted light at 665 and 615 nm. […]

[2] = target: T2, FXR ligand binding domain (Homo sapiens, UniProt Q96RI1); test: Mammalian One Hybrid (M1H) assay, Gal4 promoter driven transactivation in HEK293 cells; assay type: cell-based; conditions: Gal4-FXR-LBD luciferase reporter, 16 h
T2 construct: expressed in transfected cells; host or cells: HEK293 cells, transiently transfected with pCMV-BD-FXR-LBD, pFR-Luc and pRL-CMV
T2 sequence (Q96RI1 187-472 isoform Q96RI1-2): T1 sequence (Q96RI1 187-472 isoform Q96RI1-2)
Method: Mammalian One Hybrid (M1H) Assay
Determination of a ligand mediated Gal4 promoter driven transactivation to quantify ligand binding mediated activation of FXR was performed as follows: The cDNA part encoding the FXR ligand binding domain was cloned into vector pCMV-BD (Stratagene) as a fusion to the yeast GAL4 DNA binding domain under the control of the CMV promoter. The amino acid boundaries of the ligand binding domain were amino acids 187-472 of Database entry NM_005123 (RefSeq). The plasmid pFR-Luc (Stratagene) was used as the reporter plasmid, containing a synthetic promoter with five tandem repeats of the yeast GAL4 binding sites, driving the expression of the Photinus pyralis (American firefly) luciferase gene as the reporter gene. In order to improve experimental accuracy the plasmid pRL-CMV (Promega) was cotransfected. pRL-CMV contains the constitutive CMV promoter, controlling the expression of the Renilla reniformis luciferase. All Gal4 reporter gene assays were done in HEK293 cells (obtained from DSMZ, Braunschweig, Germany) grown in MEM with L-Glutamine and Earle's BSS supplemented with 10% fetal bovine serum, 0.1 mM nonessential amino acids, 1 mM sodium pyruvate, and 100 units Penicilin/[…] per mL at 37° C. in 5% CO2. Medium and supplements were obtained from Invitrogen. For the assay, […] cells were plated per well in 96 well plates in 100 μL per well MEM without Phenol Red and L-Glutamine and with Earle's BSS supplemented with 10% charcoal/dextran treated FBS (HyClone, South Logan, Utah), 0.1 mM nonessential amino acids, 2 mM glutamine, 1 mM sodium pyruvate, and 100 units Penicilin/[…] per mL, incubated at 37° C. in 5% CO2. The following day the cells were >90% confluence. Medium was removed and cells were transiently transfected using 20 μL per well of a OptiMEM—polyethylene-imine-based transfection-reagent (OptiMEM, Invitrogen; Polyethyleneimine, Aldrich Cat No. 40,827-7) including the three plasmids described above. MEM with the same composition as used for plating cells was added 2-4 h after addition of transfection mixture. Then compound stocks, prediluted in MEM were added (final vehicle concentration not exceeding 0.1%). Cells were incubated for additional 16 h before firefly and renilla luciferase activities were measured sequentially in the same cell extract using a Dual-Light-Luciferase-Assay system (Dyer et al., Anal. Biochem. 2000, 282, 158-161). All experiments were done in triplicates.

| SMILES | EC50 [1] | EC50 [2] |
| --- | --- | --- |
| O=C(O)c1ccc2nc([C@]3(O)CC[C@@H](OCc4c(C5CCC(F)(F)CC5)noc4C4CC4)CC3)sc2c1 [Example 11-1, 2-((1s,4s)-4-((5-Cyclopropyl-3-(4,4-difluorocyclohexyl)isoxazol-4-yl)methoxy)-1-hydroxycyclohexyl)benzo[d]thiazole-6-carboxylic acid] | 2200 nM | > 3000 nM |
| O=C(O)c1ccc2nc([C@]3(O)CC[C@H](OCc4c(C5CCC(F)(F)CC5)noc4C4CC4)CC3)sc2c1 [Example 11-2, 2-((1r,4r)-4-((5-Cyclopropyl-3-(4,4-difluorocyclohexyl)isoxazol-4-yl)methoxy)-1-hydroxycyclohexyl)benzo[d]thiazole-6-carboxylic acid] | 8600 nM | > 3000 nM |
| O=C(O)c1ccc2nc([C@]3(O)CC[C@@H](OCc4c(C5CCC6(CC5)CC6)noc4C4CC4)CC3)sc2c1 [Example 11-3, 2-((1s,4s)-4-((5-Cyclopropyl-3-(spiro[2.5]octan-6-yl)isoxazol-4-yl)methoxy)-1-hydroxycyclohexyl)benzo[d]thiazole-6-carboxylic acid] | 1300 nM | 2100 nM |
| O=C(O)c1ccc([C@]2(O)CC[C@@H](OCc3c(-c4c(Cl)cccc4Cl)noc3C3CC3)CC2)c(F)c1 [Example 11-5, 4-((1s,4s)-4-((5-Cyclopropyl-3-(2,6-dichlorophenyl)isoxazol-4-yl)methoxy)-1-hydroxycyclohexyl)-3-fluorobenzoic acid] | 60 nM | 94 nM |
| O=C(O)c1ccnc([C@]2(O)CC[C@@H](OCc3c(-c4c(Cl)cccc4Cl)noc3C3CC3)CC2)c1 [Example 11-6, 2-((1s,4s)-4-((5-Cyclopropyl-3-(2,6-dichlorophenyl)isoxazol-4-yl)methoxy)-1-hydroxycyclohexyl)isonicotinic acid] | 40 nM | 51 nM |
| O=C(O)c1cc(F)c2nc([C@]3(O)CC[C@@H](OCc4c(-c5ccccc5OC(F)F)noc4C4CC4)CC3)sc2c1 [Example 11-7, 2-((1s,4s)-4-((5-Cyclopropyl-3-(2-(difluoromethoxy)phenyl)isoxazol-4-yl)methoxy)-1-hydroxycyclohexyl)-4-fluorobenzo[d]thiazole-6-carboxylic acid] | 150 nM | 1300 nM |
| O=C(O)Cc1ccc([C@]2(O)CC[C@@H](OCc3c(-c4c(Cl)cccc4Cl)noc3C3CC3)CC2)c(F)c1 [Example 11-8, 2-(4-((1s,4s)-4-((5-Cyclopropyl-3-(2,6-dichlorophenyl)isoxazol-4-yl)methoxy)-1-hydroxycyclohexyl)-3-fluorophenyl)acetic acid] | 8000 nM | > 3000 nM |
| O=C(O)Cc1ccc(F)c([C@]2(O)CC[C@@H](OCc3c(-c4c(Cl)cccc4Cl)noc3C3CC3)CC2)c1 [Example 11-9, 2-(3-((1s,4s)-4-((5-Cyclopropyl-3-(2,6-dichlorophenyl)isoxazol-4-yl)methoxy)-1-hydroxycyclohexyl)-4-fluorophenyl)acetic acid] | 47 nM | 120 nM |
| O=C(O)c1ccc2nc([C@]3(O)CC[C@@H](OCc4c(-c5ccccc5OC(F)F)noc4C4CC4)CC3)sc2c1 [Example 11-10, 2-((1s,4s)-4-((5-Cyclopropyl-3-(2-(difluoromethoxy)phenyl)isoxazol-4-yl)methoxy)-1-hydroxycyclohexyl)benzo[d]thiazole-6-carboxylic acid] | 250 nM | 1200 nM |
| O=C(O)c1ccc2nc([C@]3(O)CC[C@@H](OCc4c(-c5ccccc5C5CC5)noc4C4CC4)CC3)sc2c1 [Example 11-11, 2-((1s,4s)-4-((5-Cyclopropyl-3-(2-cyclopropylphenyl)isoxazol-4-yl)methoxy)-1-hydroxycyclohexyl)benzo[d]thiazole-6-carboxylic acid] | 1000 nM | 1400 nM |
| Cc1cccc(C)c1-c1noc(C2CC2)c1CO[C@H]1CC[C@](O)(c2nc3ccc(C(=O)O)cc3s2)CC1 [Example 11-12, 2-((1s,4s)-4-((5-Cyclopropyl-3-(2,6-dimethylphenyl)isoxazol-4-yl)methoxy)-1-hydroxycyclohexyl)benzo[d]thiazole-6-carboxylic acid] | 360 nM | 430 nM |
| O=C(O)c1ccc2nc([C@]3(O)CC[C@@H](OCc4c(C5CC5)cnn4-c4c(Cl)cccc4Cl)CC3)sc2c1 [Example 11-13, 2-((1s,4s)-4-((4-Cyclopropyl-1-(2,6-dichlorophenyl)-1H-pyrazol-5-yl)methoxy)-1-hydroxycyclohexyl)benzo[d]thiazole-6-carboxylic acid] | 110 nM | 440 nM |
| O=C(O)c1ccc2nc([C@]3(O)CC[C@@H](OCc4c(-c5ccccc5OC(F)(F)F)noc4C4CC4)CC3)sc2c1 [Example 11-14, 2-((1s,4s)-4-((5-Cyclopropyl-3-(2-(trifluoromethoxy)phenyl)isoxazol-4-yl)methoxy)-1-hydroxycyclohexyl)benzo[d]thiazole-6-carboxylic acid] | 230 nM | 270 nM |
